In general, IC50 refers to the concentration that gives 50% inhibition.

This note sets out measurements from patent publication US6245801A, “Branched alkyl pyrrolidine-3-carboxylic acids” (Warner-Lambert Company, priority 2000, dated 2001).

The test system of one assay is NA Release. Nature of the assay: NA Release, % inhibition. The note with it: @ 100 μM.
The test system of the next assay is Vogel. Put plainly: Vogel. The format is in vivo. The settings on record: relative to C1-1008.
The next assay relates to DBA/2 mice. Put plainly: DBA2 mouse model of anticonvulsant efficacy (sound-induced seizures). The note with it: time not printed. In kind it is in vivo, mouse (male DBA/2). The protocol:
DBA2 Mouse Model of Anticonvulsant Efficacy
All procedures were carried out in compliance with the NIH Guide for the Care and Use of Laboratory Animals under a protocol approved by the Parke-Davis Animal Use Committee. Male DBA/2 mice, 3 to 4 weeks old were obtained from Jackson Laboratories Bar Harbour, Me. Immediately before anticonvulsant testing, mice were placed upon a wire mesh, 4 inches square, suspended from a steel rod. The square was slowly inverted through 180° and mice observed for 30 seconds. Any mouse falling from the wire mesh was scored as ataxic (Coughenour L. L., McLean J. R., Parker R. B., "A new device for the rapid measurement of impaired motor function in mice," Pharm. Biochem. Behav., 1977;6(3):351-3). Mice were placed into an enclosed acrylic plastic chamber (21 cm height, approximately 30 cm diameter) with a high-frequency speaker (4 cm diameter) in the center of the top lid. An audio signal generator (Protek model B-810) was used to produce a continuous sinusoidal tone that was swept linearly in frequency between 8 kHz and 16 kHz once each 10 msec. The average sound pressure level (SPL) during stimulation was approximately 100 dB at the floor of the chamber. Mice were placed within the chamber and allowed to acclimatize for one minute. DBA/2 mice in the vehicle-treated group responded to the sound stimulus (applied until tonic extension occurred, or for a maximum of 60 sec) with a characteristic seizure sequence consisting of wild running followed by clonic seizures, and later by tonic extension, and finally by respiratory arrest and death in 80% or more of the mice. In vehicle-treated mice, the entire sequence of seizures to respiratory arrest lasts approximately 15 to 20 seconds. The incidence of all the seizure phases in the drug-treated and vehicle-treated mice was recorded, and the occurrence of tonic seizures were used for calculating anticonvulsant ED50 values by probit analysis (Litchfield J. T., Wilcoxon F. "A simplified method for evaluating dose-effect experiments," J. Pharmacol., 1949;96:99-113). Mice were used only once for testing at each dose point. Groups of DBA/2 mice (n=5-10 per dose) were tested for sound-induced seizure responses 2 hours (previously determined time of peak effect) after given drug orally. All drugs in the present study were dissolved in distilled water and given by oral gavage in a volume of 10 mL/kg of body weight. Compounds that are insoluble will be suspended in 1% carboxymethocellulose. Doses are expressed as weight of the active drug moiety.

In assay [1] the test system is carrageenin-induced hyperalgesia. Put plainly: CITH / carrageenin-induced hyperalgesia. The format is in vivo, rat (male Sprague-Dawley). The note with it: for CITH % MPE 1 h / CITH % MPE 2 h: Table I; for percent of maximum possible effect (MPE): 30 mg/kg orally. The protocol: Carrageenin-Induced Hyperalgesia
Nociceptive pressure thresholds were measured in the rat paw pressure test using an analgesymeter (Randall-Selitto method: Randall L. O. and Selitto J. J., "A method for measurement of analgesic activity on inflamed tissue," Arch. Int. Pharmacodyn., 1957;4:409-419). Male Sprague-Dawley rats (70-90 g) were trained on this apparatus before the test day. Pressure was gradually applied to the hind paw of each rat and nociceptive thresholds were determined as the pressure (g) required to elicit paw withdrawal. A cutoff point of 250 g was used to prevent any tissue damage to the paw. On the test day, two to three baseline measurements were taken before animals were administered 100 μL of 2% carrageenin by intraplantar injection into the right hind paw. […] Animals were dosed with either gabapentin ([…].), morphine (3 mg/kg, s.c.) or saline at 3.5 hours after carageenin and nociceptive thresholds were examined at 4, 4.5, and 5 hours postcarrageenin.
(R)-2-Aza-spiro[4.5]decane-4-carboxylic acid hydrochloride was tested in the above carrageenan-induced hyperalgesia model. The compound was dosed orally at 30 mg/kg, and 1 hour postdose gave a percent of maximum possible effect (MPE) of 53%. At 2 hours postdose, it gave only 4.6% of MPE.

The target of assay [2] is T1, α2δ subunit of a calcium channel (Sus scrofa, UniProt A0A287BIN3).
T1 construct: α2δ subunit derived from porcine brain tissue; from tissue; host or cells: porcine brain tissue
Put plainly: [3H]gabapentin (GAP) radioligand binding assay, α2δ subunit. Also noted: species or system porcine (brain tissue).

A further assay deals with Sys L. Nature of the assay: Sys L. The note with it: Table I.

T1 sequence (A0A287BIN3 entry or part of it): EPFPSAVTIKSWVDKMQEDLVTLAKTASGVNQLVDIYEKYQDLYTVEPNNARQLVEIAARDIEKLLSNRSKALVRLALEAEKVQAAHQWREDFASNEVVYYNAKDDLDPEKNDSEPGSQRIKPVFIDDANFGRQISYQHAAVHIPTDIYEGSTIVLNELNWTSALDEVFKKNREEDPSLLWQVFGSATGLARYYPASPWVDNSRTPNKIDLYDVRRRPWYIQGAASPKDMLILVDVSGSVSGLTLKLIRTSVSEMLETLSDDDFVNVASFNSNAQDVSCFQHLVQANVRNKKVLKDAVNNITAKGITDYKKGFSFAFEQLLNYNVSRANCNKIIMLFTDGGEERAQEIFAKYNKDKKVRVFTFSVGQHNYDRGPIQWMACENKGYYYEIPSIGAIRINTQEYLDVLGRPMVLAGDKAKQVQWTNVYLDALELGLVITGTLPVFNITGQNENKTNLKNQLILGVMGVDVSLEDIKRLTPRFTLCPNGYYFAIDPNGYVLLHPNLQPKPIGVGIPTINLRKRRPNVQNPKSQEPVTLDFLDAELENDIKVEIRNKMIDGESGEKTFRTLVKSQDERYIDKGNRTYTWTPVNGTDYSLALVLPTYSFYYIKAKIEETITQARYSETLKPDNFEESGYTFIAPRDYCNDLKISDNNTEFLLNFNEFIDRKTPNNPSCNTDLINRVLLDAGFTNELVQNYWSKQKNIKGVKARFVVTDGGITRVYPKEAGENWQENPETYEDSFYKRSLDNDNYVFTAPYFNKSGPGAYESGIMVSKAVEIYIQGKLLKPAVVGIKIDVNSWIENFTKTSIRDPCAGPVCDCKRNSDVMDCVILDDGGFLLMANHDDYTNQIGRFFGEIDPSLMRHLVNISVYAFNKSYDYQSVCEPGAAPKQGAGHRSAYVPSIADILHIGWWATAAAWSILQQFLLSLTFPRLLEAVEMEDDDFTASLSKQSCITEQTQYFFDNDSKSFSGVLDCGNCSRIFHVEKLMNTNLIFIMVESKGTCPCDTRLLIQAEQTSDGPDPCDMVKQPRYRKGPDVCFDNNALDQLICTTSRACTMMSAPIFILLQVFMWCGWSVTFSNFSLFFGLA

In the case of `CC(C)C[C@H]1CNC[C@@H]1C(=O)O`, the “NA Release % Inhibition” value in the assay with NA Release came to 16%. The “Vogel % of C1-1008” value with Vogel is listed as 0.63 % of C1-1008. Also, the figures for the “DBA 2 % Protect (time)” value in the assay on DBA/2 mice (first value of the column) and with DBA/2 mice (second value of the column) were 20% and 40%, respectively.
For `CC(C)C[C@@H]1CNC[C@@H]1C(=O)O` (stereo in doubt), the “CITH % MPE 1 h” value in assay [1] is 23 % MPE. Further, the “CITH % MPE 2 h” value in assay [1] is reported as 3.3 % MPE. The IC50 in assay [2] was found to be 0.7 µM. For the same compound, the “DBA 2 % Protect (time)” value in the assay on DBA/2 mice (first value of the column) and in the assay with DBA/2 mice (second value of the column) was 0% throughout.
Take `CC(C)[C@H]1CNC[C@@H]1C(=O)O` (relative stereo): in assay [2], the IC50 is 0.543 µM.
As for `Cl.O=C(O)[C@H]1CNCC12CCCCC2` [(R)-2-Aza-spiro[4.5]decane-4-carboxylic acid hydrochloride], the “percent of maximum possible effect (MPE)” value in assay [1] (1 hour postdose) came out at 53%; in assay [1] (2 hours postdose), 4.6%. In assay [1], the “CITH % MPE 1 h” value worked out at 53 % MPE. Besides, in assay [1], the “CITH % MPE 2 h” value was determined as 4.6 % MPE. Also, the IC50 is greater than 10000 µM in the assay with Sys L and 0.12 µM in assay [2]. Moreover, the “DBA 2 % Protect (time)” value in the assay on DBA/2 mice (first value of the column) and in the assay on DBA/2 mice (second value of the column) was 20% in each case.
Regarding `CCC[C@H]1CNC[C@@H]1C(=O)O` (relative stereo), the IC50 in assay [2] turned out to be 0.03 µM.
For the compound `CC(C)C[C@H]1CNC[C@H]1C(=O)O` (stereo in doubt) [Example 1, (cis)-4-Isobutyl-pyrrolidine-3-carboxylic acid], in assay [2], the IC50 worked out at 0.135 µM.
As to `NCC1(CC(=O)O)CCCCC1` [reference compound], in assay [1], the “CITH % MPE 1 h” value is given as 48.9 % MPE and the “CITH % MPE 2 h” value is on record as 19.9 % MPE. In addition, in the assay on Sys L, the IC50 is 25 µM. In the assay on Vogel, the “Vogel % of C1-1008” value is reported as 63.7 % of C1-1008. In addition, the “DBA 2 % Protect (time)” value with DBA/2 mice (first value of the column) is listed as 100%.
Regarding `C[C@H]1CNC[C@@H]1C(=O)O` (relative stereo), the concentration for half-maximal inhibition (IC50) in assay [2] came to 3.1 µM.
Turning to `CC(C)C[C@@H]1CNC[C@H]1C(=O)O`, in the assay with NA Release, the “NA Release % Inhibition” value was 8%. Further, the “Vogel % of C1-1008” value in the assay with Vogel is given as -0.63 % of C1-1008.
Take `CCCC[C@H]1CNC[C@@H]1C(=O)O` (relative stereo): the IC50 in assay [2] was 0.064 µM.
Turning to `CC(C)C[C@H](CN)CC(=O)O` [reference compound], the “CITH % MPE 1 h” value in assay [1] amounted to 52.5 % MPE. The “CITH % MPE 2 h” value in assay [1] came out at 50.1 % MPE. Moreover, the IC50 with Sys L turned out to be 193 µM; in assay [2], 0.087 µM. The “Vogel % of C1-1008” value in the assay with Vogel is reported as 100 % of C1-1008. The “DBA 2 % Protect (time)” value in the assay with DBA/2 mice (first value of the column) and in the assay on DBA/2 mice (second value of the column) was 100% throughout.
As for `CC1(C)CNCC1C(=O)O` (racemic), in assay [2], the IC50 is 1.19 µM.
Consider `CC(C)C[C@H]1CNC[C@@H]1C(=O)O` (stereo in doubt), for which, in assay [1], the “CITH % MPE 1 h” value is 3 % MPE and the “CITH % MPE 2 h” value is reported as -15 % MPE. Further, the “DBA 2 % Protect (time)” value in the assay on DBA/2 mice (first value of the column) was 0%. In addition, in the assay with DBA/2 mice (second value of the column), the “DBA 2 % Protect (time)” value is recorded as 0%.
